# Data taken from ChEMBL document CHEMBL1156829 (Proc Natl Acad Sci U S A, 2008).
# Tests used:
# Plasmodium falciparum [1] = experiment: NOVARTIS: Inhibition of Plasmodium falciparum 3D7 (drug-susceptible) proliferation in erythrocyte-based infection assay; format: functional, organism-based; conditions: Plasmodium falciparum, 3D7
# Plasmodium falciparum [2] = experiment: NOVARTIS: Inhibition of Plasmodium falciparum W2 (drug-resistant) proliferation in erythrocyte-based infection assay; format: functional, organism-based; conditions: Plasmodium falciparum, W2; read-out: EC50
# [3] = NOVARTIS: Cytotoxicity against human hepatocellular carcinoma cell line (Huh7); format: toxicity, cell-based, Huh-7; conditions: Huh7 cells (hepatocellular carcinoma cell line)
Structure (SMILES),EC50 (Plasmodium falciparum [1]),EC50 (Plasmodium falciparum [2]),CC50 [3]
Cc1ccc(-c2cc(C(F)(F)F)n3ncc(C(=O)Nc4cc(Cl)ccc4O)c3n2)cc1,1.88 µM,1.43 µM,> 100 µM
CCOc1ccc(-n2c(=S)sc3c(=O)n(-c4ccc(C)cc4)c(SCC(=O)Nc4cc(OC)ccc4OC)nc32)cc1,0.285 µM,0.123 µM,> 100 µM
N=C(NN=Cc1cccc([N+](=O)[O-])c1)SC1CC(=O)N(c2cc(Cl)ccc2Cl)C1=O (centres undefined),> 1.25 µM,> 1.19 µM,> 10 µM
COc1ccc(-n2nc(C(=O)NCCC3=CCCCC3)c3ccccc3c2=O)cc1,7.22 µM,> 9.81 µM,> 100 µM
N#Cc1ccc2c(c1)nc1c3ccc4c5c(ccc(c(=O)n21)c53)C(=O)NC4=O,3.94 µM,0.867 µM,> 100 µM
CCOC(=O)N1CCN(C(=O)C(NC(=O)C2CCC(C)CC2)C(C)C)CC1 (centres undefined),> 1.67 µM,> 0.755 µM,> 10 µM
CC1(C)CC(=O)c2cc(-c3ccc(Br)cc3)n(-c3ccccc3F)c2C1,> 0.972 µM,> 1.25 µM,> 10 µM
Cc1cc(-c2cnc(C)nc2C2CCN(C(=O)c3ccc4ncccc4c3)CC2)on1,> 0.917 µM,0.42 µM,> 11.6 µM
COc1ccccc1NC(=O)Cn1cnc2sc(C(=O)Nc3ccc(F)cc3)c(C)c2c1=O,0.513 µM,> 1.71 µM,> 10 µM
Cc1ccc2c(Cl)c(C(=O)N3CC(C)OC(C)C3)sc2c1 (centres undefined),0.102 µM,0.072 µM,> 100 µM
Cn1c(SCc2cccc([N+](=O)[O-])c2)nc2c(c1=O)SCC2,3.28 µM,2.79 µM,> 100 µM
CC(=O)N(C1=C(N2CCCC2)C(=O)c2ccccc2C1=O)c1ccc(I)cc1,0.553 µM,0.224 µM,47 µM
Cn1nc(C(C)(C)C)cc1C(=O)N1CCCN1C(=O)CNC(=O)c1ccco1,> 0.335 µM,> 1.25 µM,> 10 µM
Cc1cc2c(cc1C)N(C(=O)c1ccccc1)C(C)(C)c1ssc(=S)c1-2,0.6 µM,0.572 µM,> 100 µM
CC1CCCCN1CC(=O)N1CCN(C(=O)CN2CCCCC2C)CC1.CC=O (centres undefined),> 1.25 µM,0.0603 µM,> 4.25 µM
CCc1ccc2[nH]c(=O)c(CN(CCO)C(=S)Nc3ccccc3CC)cc2c1,2.62 µM,1.91 µM,48.1 µM
CC1CCCCN1CCCNc1ncc(C(=O)NCCc2ccccc2)c(Nc2ccccc2)n1 (centres undefined),1.12 µM,> 1.25 µM,> 10 µM
CCOC(=O)c1c(NC(=O)CSc2nnc(CNC(=O)c3cccc(OC)c3)n2C2CCCCC2)sc2c1CCCC2,> 0.295 µM,> 1.67 µM,> 10 µM
COc1cc(C(=O)Nc2c3c(nn2-c2cc(C)cc(C)c2)CSC3)cc(OC)c1OC,0.907 µM,0.341 µM,> 1.07 µM
Oc1ccc(-c2cncc(NCc3ccc(Cl)cc3)c2)cc1,0.439 µM,0.405 µM,> 10 µM
COc1cc(/C=C\C(=O)Nc2c3c(nn2-c2ccc(F)cc2)CSC3)cc(OC)c1OC,0.614 µM,0.0844 µM,> 10 µM
CC1CCN(S(=O)(=O)c2ccc(C(=O)Nc3sc4c(c3C(N)=O)CCN(C)C4)cc2)CC1,> 1.25 µM,> 0.665 µM,> 10 µM
COc1cccc(OC)c1C(=O)Nn1c(-c2cccc(C)c2)nc2ccccc2c1=O,> 1.25 µM,> 1.03 µM,> 10 µM

Structure (SMILES),EC50 (Plasmodium falciparum [1]),EC50 (Plasmodium falciparum [2]),CC50 [3]
CCN1C(=O)N(CCC(C)C)C2(CCN(Cc3cc(Cl)ccc3O)CC2)C1=O,0.348 µM,0.102 µM,> 100 µM
C[n+]1ccc(/C=C/c2ccc(Br)cc2)cc1,0.455 µM,0.313 µM,> 10 µM
COc1ccc(-c2c[n+](-c3ccccc3)c3n2CCS3)cc1,0.778 µM,0.784 µM,> 10 µM
COc1cc(CNCCCn2ccnc2)ccc1OCc1ccccc1,> 1.25 µM,> 1.17 µM,> 10 µM
CN(c1ccc(Br)cc1)S(=O)(=O)c1ccc2[nH]cc(C(=O)N3CCN(c4ccccc4)CC3)c(=O)c2c1,> 1.25 µM,< 0.00283 µM,> 10 µM
C=CCc1cc(-c2cc(CC=C)c(O)c(CN(CC)CC)c2)cc(CN(CC)CC)c1O,0.273 µM,0.0619 µM,> 10 µM
CCCCCc1c(C)c(C#N)c2nc3ccccc3n2c1NCCN(CC)CC,> 1.25 µM,1.32 µM,> 10 µM
Cc1ccc(-c2nnc(NCc3ccccc3)c3ccccc23)cc1S(=O)(=O)NCC1CCCO1 (centres undefined),1.85 µM,2.57 µM,> 100 µM
CCN(CC)S(=O)(=O)c1ccc(-c2csc(=Nc3cccc4ccccc34)n2C)cc1,0.0609 µM,> 1.22 µM,> 10 µM
COc1cc(C(C(=O)NCc2ccccc2)N(C(=O)c2snc(C(N)=O)c2N)c2ccc(C(C)C)cc2)cc(OC)c1OC (centres undefined),2.45 µM,1.29 µM,> 100 µM
Clc1cc(C=NNC2=NCCCN2)cc(Cl)n1,0.247 µM,> 0.718 µM,> 10 µM
CCCCN(C)Cc1cc(-c2cccc(OC)n2)ccc1O,0.875 µM,0.0903 µM,> 100 µM
O=C1c2cccc(N3CCN(Cc4cccn4-c4nccs4)CC3)c2C(=O)N1Cc1ccc(Cl)cc1,5.47 µM,> 12.5 µM,> 100 µM
O=C(NCc1ccco1)C1CCN(S(=O)(=O)c2ccc(Br)cc2)CC1,0.362 µM,0.629 µM,> 100 µM
O=C(/C=C/c1ccccc1)c1c(-c2ccccc2)c2cc([N+](=O)[O-])ccc2[nH]c1=O,> 1.64 µM,> 0.976 µM,> 10 µM
CCOC(=O)C1=C(C)N/C(=C\c2cc(C)n(-c3cccc(Br)c3)c2C)C1=O,> 1.25 µM,> 0.926 µM,> 10 µM
O=C(NCCCCNc1ccnc2cc(Cl)ccc12)c1ccccc1Br,0.468 µM,0.494 µM,> 10 µM
Cc1nc2ccccc2c(=O)n1-c1ccc([N+](=O)[O-])cc1,0.765 µM,0.896 µM,> 10 µM
COc1ccc(C(=O)C[n+]2cc(-c3ccc(OC)cc3)n3c2CCC3)cc1,0.892 µM,0.822 µM,> 100 µM
COc1ccc(CCN2CCC(NCc3cccc(N(C)C)c3)CC2)cc1,0.806 µM,1.06 µM,> 10 µM
COc1ccc(-n2nc(C(C)(C)C)cc2NC(=O)CN(C(=O)c2ccc(C)c([N+](=O)[O-])c2)C(C)C)cc1,1.55 µM,1.82 µM,31.1 µM
CC(C)NC(=O)N1CCN(C(=O)C(Cc2c[nH]c3ccccc23)NC(=O)Nc2cccc(C#N)c2)CC1C (centres undefined),0.0567 µM,0.211 µM,> 10 µM
COc1ccc(C2c3[nH]c4ccccc4c3C[C@H]3C(=O)N(CCC(C)C)CC(=O)N23)cc1 (some centres undefined),3.19 µM,0.497 µM,> 100 µM

Structure (SMILES),EC50 (Plasmodium falciparum [1]),EC50 (Plasmodium falciparum [2]),CC50 [3]
CN(Cc1cc(-c2ccccc2)ccc1O)CC(O)c1ccccc1 (centres undefined),0.438 µM,0.0181 µM,> 10 µM
CCCOC(=O)C1=C(C)NC2=C(C(=O)CC(c3ccc(Cl)cc3)C2)C1c1ccc(Br)cc1 (centres undefined),0.498 µM,0.198 µM,> 100 µM
COc1ccccc1-n1c(/C=C/c2cc(Br)ccc2O)nc2ccccc2c1=O,> 1.25 µM,> 1.05 µM,> 10 µM
CCN1/C(=C/c2sc3ccc(Br)cc3[n+]2CC)C=Cc2ccccc21,0.645 µM,1.08 µM,> 10 µM
CN1CCN(c2ccc(Nc3ccnc4cc(Cl)ccc34)cc2Cl)CC1,0.0358 µM,0.0547 µM,> 23.7 µM
O=C(CC1SC(=Nc2ccccc2)NC1=O)Nc1cc(Cl)ccc1Cl (centres undefined),> 12.5 µM,> 7.08 µM,> 100 µM
O=C(Cc1ccsc1)N1CCOc2c(cc(-c3csc4ccccc34)cc2OCCc2ccccn2)C1,0.379 µM,0.223 µM,> 100 µM
O=c1c2c([nH]c3ccccc13)CCCCCC2,2.94 µM,2.67 µM,> 100 µM
O=C(Nc1ccc(C(=O)Nc2cccc(C3=NCCN3)c2)cc1)c1ccc(C2=NCCN2)cc1,0.193 µM,0.128 µM,> 100 µM
CCOC(=O)c1cnc2ccc(OCC)cc2c1NCC1CCCN1CC (centres undefined),> 0.74 µM,1.15 µM,> 10 µM
Cc1onc(-c2ccccc2)c1C(=O)N1CCC(CNc2c(-c3ccc(F)cc3)nc3ccccn23)CC1,0.674 µM,0.178 µM,45 µM
BrC(Br)(Br)c1ncc(-c2ccccc2)cn1,0.0433 µM,0.143 µM,> 10 µM
Nc1nc(N)c2cc(S(=O)(=O)N3CCCCC3)ccc2n1,0.0202 µM,> 1.25 µM,2.67 µM
CCOc1ccc(Nc2nc(NCc3ccco3)c3ccccc3n2)cc1,0.288 µM,0.528 µM,11.6 µM
O=[N+]([O-])c1ccc(Cl)c(-c2ccc(C=NNc3nc4ccccc4[nH]3)o2)c1,0.946 µM,0.801 µM,> 10 µM
COC(=O)[C@@H]1C[C@@H](NC(=O)c2ccc(OC)cc2OC)CN1Cc1ccc(C)cc1C,0.303 µM,0.126 µM,> 100 µM
C=CCN1Cc2ccc(C(=O)NCc3ccccc3)cc2N=C1c1ccc(F)cc1,> 1.25 µM,< 0.0143 µM,> 12.6 µM
Cc1ccc(Sc2c(C)nn(C(=O)c3cccnc3)c2C)cc1,0.322 µM,> 0.677 µM,> 10 µM
CCOc1ccc(-c2cn3c(n2)sc2cc(C(=O)NCCN(CC)CC)ccc23)cc1,0.766 µM,1.27 µM,47.5 µM
CC1CCCCN1CCCNc1ncc(C(=O)NCc2ccccc2)c(NCC2CCCCC2)n1 (centres undefined),0.582 µM,> 0.759 µM,> 10 µM
CC(C)OC(=O)c1cccnc1SCC(=O)Nc1ccc(C(F)(F)F)cc1Cl,5.54 µM,1.5 µM,> 100 µM
CCOc1ccc2nc3cc(NCc4ccco4)ccc3c(N)c2c1,0.846 µM,0.757 µM,37.9 µM
